How the values were obtained:
Cytochrome P450 3A4 [1] = molecular target: T1, Cytochrome P450 3A4 (Homo sapiens, UniProt P08684); assay: Fraction metabolized assessed as human recombinant CYP3A4-mediated drug depletion by LC-MS/MS method relative to total normalized intrinsic clearance; assay type: ADME; conditions: recombinant enzyme
Cytochrome P450 3A4 [2] = molecular target: T1, Cytochrome P450 3A4; assay: Drug metabolism in human liver microsomes assessed as CYP3A4-mediated drug depletion in presence of CYP3A4 inhibitor ketoconazole by LC-MS/MS method; assay type: ADME
Cytochrome P450 2C9 [3] = molecular target: T2, Cytochrome P450 2C9 (Homo sapiens, UniProt P11712); assay: Drug metabolism in human liver microsomes assessed as CYP3A4-mediated drug depletion in presence of CYP2C9 inhibitor sulfaphenazole by LC-MS/MS method; assay type: ADME
T2 sequence (P11712 whole entry): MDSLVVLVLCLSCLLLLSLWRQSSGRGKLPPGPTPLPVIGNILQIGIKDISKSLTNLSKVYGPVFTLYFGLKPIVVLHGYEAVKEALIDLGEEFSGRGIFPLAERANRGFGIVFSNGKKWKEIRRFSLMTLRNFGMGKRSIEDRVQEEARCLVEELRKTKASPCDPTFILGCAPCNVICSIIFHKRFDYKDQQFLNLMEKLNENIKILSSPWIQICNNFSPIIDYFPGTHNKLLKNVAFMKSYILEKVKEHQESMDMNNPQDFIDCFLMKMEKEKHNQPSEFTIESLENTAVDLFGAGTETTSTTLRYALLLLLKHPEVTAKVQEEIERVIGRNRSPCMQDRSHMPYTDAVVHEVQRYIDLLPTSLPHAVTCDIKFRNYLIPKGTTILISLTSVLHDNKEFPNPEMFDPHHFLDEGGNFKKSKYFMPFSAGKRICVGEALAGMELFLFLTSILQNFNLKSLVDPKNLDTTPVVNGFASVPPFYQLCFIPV

Cytochrome P450 2C19 [4] = molecular target: T3, Cytochrome P450 2C19 (Homo sapiens, UniProt P33261); assay: Drug metabolism in human liver microsomes assessed as CYP3A4-mediated drug depletion in presence of CYP2C19 inhibitor modafinil by LC-MS/MS method; assay type: ADME
T3 sequence (P33261 whole entry): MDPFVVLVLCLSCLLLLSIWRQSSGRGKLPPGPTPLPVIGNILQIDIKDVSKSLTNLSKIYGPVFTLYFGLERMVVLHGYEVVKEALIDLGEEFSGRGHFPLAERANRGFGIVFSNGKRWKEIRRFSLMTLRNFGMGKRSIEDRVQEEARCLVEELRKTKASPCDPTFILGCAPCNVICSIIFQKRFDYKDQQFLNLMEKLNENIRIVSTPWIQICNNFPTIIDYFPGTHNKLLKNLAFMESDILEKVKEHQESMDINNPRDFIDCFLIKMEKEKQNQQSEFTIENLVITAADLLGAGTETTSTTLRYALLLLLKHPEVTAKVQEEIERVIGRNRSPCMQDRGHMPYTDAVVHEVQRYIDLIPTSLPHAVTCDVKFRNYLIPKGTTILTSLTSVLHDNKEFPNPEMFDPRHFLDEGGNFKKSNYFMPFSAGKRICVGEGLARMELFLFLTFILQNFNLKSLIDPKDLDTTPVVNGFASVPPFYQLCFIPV

Plasma [5] = assay: Drug level in human plasma treated with [14C}LY2452473 at 15 mg, po after 4 hrs administered as single dose by HPLC analysis relative to total radioactivity; assay type: ADME, organism-based; conditions: in vivo
[6] = Drug excretion in feces of human treated with [14C}LY2452473 at 15 mg, po administered as single dose by HPLC analysis; assay type: ADME, organism-based; conditions: read-out: Drug excretion
[7] = Total drug excretion in human treated with [14C}LY2452473 at 15 mg, po administered as single dose by HPLC analysis; assay type: ADME, organism-based; conditions: in vivo, read-out: Drug excretion
Plasma [8] = assay: Drug level in plasma of human treated with [14C}LY2452473 at 15 mg, po administered as single dose by LC-MS/MS method; assay type: ADME, organism-based; conditions: in vivo
[9] = Drug level in feces of human treated with [14C}LY2452473 at 15 mg, po administered as single dose by LC-MS/MS method; assay type: ADME, organism-based; conditions: in vivo
Cytochrome P450 1A2 = molecular target: T4, Cytochrome P450 1A2 (Homo sapiens, UniProt P05177); assay: Drug metabolism assessed as human recombinant CYP1A2-mediated drug depletion by LC-MS/MS method; assay type: ADME; conditions: recombinant enzyme
T4 sequence (P05177 whole entry): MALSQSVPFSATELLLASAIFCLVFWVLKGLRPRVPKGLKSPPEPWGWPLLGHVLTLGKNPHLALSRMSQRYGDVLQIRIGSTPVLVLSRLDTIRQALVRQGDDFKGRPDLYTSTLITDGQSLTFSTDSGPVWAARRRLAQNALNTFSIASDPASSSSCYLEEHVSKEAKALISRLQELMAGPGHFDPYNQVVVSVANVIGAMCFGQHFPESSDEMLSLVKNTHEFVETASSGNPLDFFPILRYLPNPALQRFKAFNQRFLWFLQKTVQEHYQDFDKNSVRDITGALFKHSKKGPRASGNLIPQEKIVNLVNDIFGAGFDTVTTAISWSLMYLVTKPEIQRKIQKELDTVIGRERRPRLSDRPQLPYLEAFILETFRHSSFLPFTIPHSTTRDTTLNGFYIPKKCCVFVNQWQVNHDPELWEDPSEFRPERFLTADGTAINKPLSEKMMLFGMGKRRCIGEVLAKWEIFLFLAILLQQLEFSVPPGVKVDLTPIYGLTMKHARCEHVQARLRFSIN

Cytochrome P450 2B6 = molecular target: T5, Cytochrome P450 2B6 (Homo sapiens, UniProt P20813); assay: Drug metabolism assessed as human recombinant CYP2B6-mediated drug depletion by LC-MS/MS method; assay type: ADME; conditions: recombinant enzyme
T5 sequence (P20813 whole entry): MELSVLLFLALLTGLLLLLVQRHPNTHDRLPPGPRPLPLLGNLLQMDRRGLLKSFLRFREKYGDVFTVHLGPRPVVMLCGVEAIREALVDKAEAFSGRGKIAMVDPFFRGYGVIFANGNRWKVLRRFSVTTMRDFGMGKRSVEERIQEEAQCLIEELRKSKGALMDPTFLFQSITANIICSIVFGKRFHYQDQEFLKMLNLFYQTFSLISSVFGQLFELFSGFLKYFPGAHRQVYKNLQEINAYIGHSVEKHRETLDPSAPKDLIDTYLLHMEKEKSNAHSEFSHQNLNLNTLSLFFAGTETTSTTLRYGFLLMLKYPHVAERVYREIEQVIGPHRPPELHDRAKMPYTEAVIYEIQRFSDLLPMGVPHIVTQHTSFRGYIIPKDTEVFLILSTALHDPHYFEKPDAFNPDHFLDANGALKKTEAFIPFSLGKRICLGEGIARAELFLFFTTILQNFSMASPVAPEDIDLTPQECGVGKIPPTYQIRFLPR

Cytochrome P450 2E1 = Cytochrome P450 2E1 (Homo sapiens, UniProt P05181); assay: Drug metabolism assessed as human recombinant CYP2E1-mediated drug depletion by LC-MS/MS method; assay type: ADME; conditions: recombinant enzyme
Cytochrome P450 2E1, sequence (P05181 whole entry): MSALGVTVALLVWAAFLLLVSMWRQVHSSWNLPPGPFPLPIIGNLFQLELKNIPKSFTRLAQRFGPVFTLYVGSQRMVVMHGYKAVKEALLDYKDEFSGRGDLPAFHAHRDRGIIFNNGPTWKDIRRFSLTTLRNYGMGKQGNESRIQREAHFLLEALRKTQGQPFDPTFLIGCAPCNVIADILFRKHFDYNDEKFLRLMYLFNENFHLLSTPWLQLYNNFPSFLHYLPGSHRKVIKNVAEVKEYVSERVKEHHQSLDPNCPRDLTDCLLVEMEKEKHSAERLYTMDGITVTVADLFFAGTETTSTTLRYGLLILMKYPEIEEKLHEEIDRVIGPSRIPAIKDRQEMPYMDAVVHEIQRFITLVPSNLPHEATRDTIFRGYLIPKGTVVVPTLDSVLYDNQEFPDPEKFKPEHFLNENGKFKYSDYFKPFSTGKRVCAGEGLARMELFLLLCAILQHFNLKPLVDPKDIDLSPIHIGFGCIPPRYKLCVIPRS

Cytochrome P450 3A5 = Cytochrome P450 3A5 (Homo sapiens, UniProt P20815); assay: Drug metabolism assessed as human recombinant CYP3A5-mediated drug depletion by LC-MS/MS method; assay type: ADME; conditions: recombinant enzyme
Cytochrome P450 3A5, sequence (P20815 whole entry): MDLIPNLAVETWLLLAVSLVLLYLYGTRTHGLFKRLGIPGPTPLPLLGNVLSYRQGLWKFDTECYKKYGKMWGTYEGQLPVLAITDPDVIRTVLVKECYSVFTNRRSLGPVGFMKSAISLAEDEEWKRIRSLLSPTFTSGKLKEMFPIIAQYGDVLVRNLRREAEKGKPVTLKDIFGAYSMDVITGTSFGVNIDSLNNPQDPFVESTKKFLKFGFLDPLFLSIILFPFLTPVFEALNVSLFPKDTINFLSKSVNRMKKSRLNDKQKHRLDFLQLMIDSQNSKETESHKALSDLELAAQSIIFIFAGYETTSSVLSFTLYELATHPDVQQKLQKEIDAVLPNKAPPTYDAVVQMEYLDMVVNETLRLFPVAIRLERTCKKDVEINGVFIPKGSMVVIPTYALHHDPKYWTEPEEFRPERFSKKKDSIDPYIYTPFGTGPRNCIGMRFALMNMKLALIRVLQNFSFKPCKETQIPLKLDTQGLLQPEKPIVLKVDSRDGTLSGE

Cytochrome P450 2C9 [10] = molecular target: T2, Cytochrome P450 2C9; assay: Intrinsic clearance assessed as human recombinant CYP2C9-mediated drug depletion per pmol protein by LC-MS/MS method; assay type: ADME; conditions: recombinant enzyme
Cytochrome P450 2C19 [11] = molecular target: T3, Cytochrome P450 2C19; assay: Intrinsic clearance assessed as human recombinant CYP2C19-mediated drug depletion per pmol protein by LC-MS/MS method; assay type: ADME; conditions: recombinant enzyme
Cytochrome P450 2C9 [12] = molecular target: T2, Cytochrome P450 2C9; assay: Normalized intrinsic clearance assessed as human recombinant CYP2C9-mediated drug depletion per pmol protein by LC-MS/MS method; assay type: ADME; conditions: recombinant enzyme
Cytochrome P450 2C19 [13] = molecular target: T3, Cytochrome P450 2C19; assay: Normalized intrinsic clearance assessed as human recombinant CYP2C19-mediated drug depletion per pmol protein by LC-MS/MS method; assay type: ADME; conditions: recombinant enzyme
Cytochrome P450 3A4 [14] = molecular target: T1, Cytochrome P450 3A4; assay: Normalized intrinsic clearance assessed as human recombinant CYP3A4-mediated drug depletion per pmol protein by LC-MS/MS method; assay type: ADME; conditions: recombinant enzyme
Homo sapiens [15] = assay: Tmax in human at 15 mg, po administered as single dose by liquid scintillation counting method; assay type: ADME, organism-based; conditions: in vivo
Homo sapiens [16] = assay: Terminal half life in human at 15 mg, po administered as single dose by liquid scintillation counting method; assay type: ADME, organism-based; conditions: in vivo
Homo sapiens [17] = assay: Tlast in human at 15 mg, po administered as single dose by liquid scintillation counting method; assay type: ADME, organism-based; conditions: in vivo
Homo sapiens [18] = assay: AUC (0 to infinity) in human at 15 mg, po administered as single dose by liquid scintillation counting method; assay type: ADME, organism-based, Plasma; parameters: dose 15 mg, time infinity, route oral; conditions: in vivo
Homo sapiens [19] = assay: Apparent total body clearance in human at 15 mg, po administered as single dose by liquid scintillation counting method; assay type: ADME, organism-based; conditions: in vivo
Homo sapiens [20] = assay: Apparent volume of distribution during terminal phase in human at 15 mg, po administered as single dose by liquid scintillation counting method; assay type: ADME, organism-based; conditions: in vivo
Plasma [21] = assay: Drug level in human plasma treated with [14C}LY2452473 at 15 mg, po after 1 hr administered as single dose by HPLC analysis; assay type: ADME, organism-based; conditions: in vivo
Plasma [22] = assay: Drug level in human plasma treated with [14C}LY2452473 at 15 mg, po after 2 hrs administered as single dose by HPLC analysis; assay type: ADME, organism-based; conditions: in vivo
Plasma [23] = assay: Drug level in human plasma treated with [14C}LY2452473 at 15 mg, po after 4 hrs administered as single dose by HPLC analysis; assay type: ADME, organism-based; conditions: in vivo
Plasma [24] = assay: Drug level in human plasma treated with [14C}LY2452473 at 15 mg, po after 8 hrs administered as single dose by HPLC analysis; assay type: ADME, organism-based; conditions: in vivo
Plasma [25] = assay: Drug level in human plasma treated with [14C}LY2452473 at 15 mg, po after 24 hrs administered as single dose by HPLC analysis; assay type: ADME, organism-based; conditions: in vivo

T1 sequence (P08684 whole entry): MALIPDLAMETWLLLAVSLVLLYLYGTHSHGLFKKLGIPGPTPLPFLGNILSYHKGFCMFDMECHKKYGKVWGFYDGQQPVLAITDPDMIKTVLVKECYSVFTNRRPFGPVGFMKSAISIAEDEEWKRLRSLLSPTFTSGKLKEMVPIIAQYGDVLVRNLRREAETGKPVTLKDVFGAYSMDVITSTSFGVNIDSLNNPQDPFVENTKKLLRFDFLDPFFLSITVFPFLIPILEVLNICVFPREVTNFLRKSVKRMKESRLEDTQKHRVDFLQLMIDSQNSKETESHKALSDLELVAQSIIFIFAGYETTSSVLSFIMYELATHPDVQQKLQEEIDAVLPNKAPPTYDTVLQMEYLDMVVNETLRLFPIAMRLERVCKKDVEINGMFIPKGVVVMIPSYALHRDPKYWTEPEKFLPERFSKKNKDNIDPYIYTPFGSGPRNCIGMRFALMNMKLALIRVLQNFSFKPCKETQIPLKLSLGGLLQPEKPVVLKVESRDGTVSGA

With `CC(C)OC(=O)N[C@H]1Cc2c(n(Cc3ccccn3)c3ccc(C#N)cc23)C1` [LY2452473] the Fm (Cytochrome P450 3A4 [1]) was 68%, the Drug metabolism (Cytochrome P450 3A4 [2]) was “metabolite_not_detected” and the Drug metabolism (Cytochrome P450 2C9 [3]) was “metabolite_not_detected”. For the same compound, the Drug metabolism (Cytochrome P450 2C19 [4]) was “metabolite_not_detected”, the Drug uptake (Plasma [5]) was 42.2% and the dose excreted [6] was 1.84%. The dose excreted [7] was 1.84%, the Drug metabolism (Plasma [8]) was “metabolite_detected” and the Drug metabolism [9] was “metabolite_detected”. For the same compound, the Drug metabolism (Cytochrome P450 1A2) was “metabolite_not_detected”, the Drug metabolism (Cytochrome P450 2B6) was “metabolite_not_detected” and the Drug metabolism (Cytochrome P450 2E1) was “metabolite_not_detected”. The Drug metabolism (Cytochrome P450 3A5) was “metabolite_not_detected”, the CL (Cytochrome P450 2C9 [10]) was 0.1 µL/min and the CL (Cytochrome P450 2C19 [11]) was 0.3 µL/min. It also gave a CL (Cytochrome P450 2C9 [12]) of 10 µL/min, a CL (Cytochrome P450 2C19 [13]) of 5.7 µL/min and a CL (Cytochrome P450 3A4 [14]) of 80 µL/min. For the same compound, the Tmax (Homo sapiens [15]) was 2 h, the “beta t1/2” value (Homo sapiens [16]) was 27 h and the Tlast (Homo sapiens [17]) was 168 h. The AUC (Homo sapiens [18]) was 1330 ng·h/mL, the CLt/F (Homo sapiens [19]) was 11 L/h and the Vz/F (Homo sapiens [20]) was 444 L. The Drug uptake (Plasma [21]) was 74.5%, the Drug uptake (Plasma [22]) was 72.93% and the Drug uptake (Plasma [23]) was 66.33%. For the same compound, the Drug uptake (Plasma [24]) was 42.36% and the Drug uptake (Plasma [25]) was 28.81%.
